The series can be described thus: solvent given as SMILES.

In the Deep4Chem optical property database one finds fluorescence lifetime data, which are given here for 43 compounds.

For the compound `Cc1cc(C)c(B(c2ccc(N(c3ccccc3)c3ccccc3)cc2)c2c(C)cc(C)cc2C)c(C)c1`, the fluorescence lifetime (in Cc1ccccc1) stood at 4 ns.

For the compound `CCC(=O)c1ccc2cc(N(C)C)ccc2c1`, the fluorescence lifetime is, setting by setting: (in C1CCCCC1) 1.6 ns; (in C1CCOC1) 3.58 ns; (in CC#N) 3.96 ns; (in CCCCCC) 0.29 ns; (in CCO) 3.65 ns; (in CN(C)C=O) 3.85 ns. The fluorescence lifetime is, setting by setting: (in CO) 3.04 ns; (in CS(C)=O) 3.12 ns; (in Cc1ccccc1) 2.33 ns; (in ClC(Cl)Cl) 3.09 ns; (in ClCCl) 3.44 ns; (in O) 2.1 ns. The fluorescence lifetime turned out to be 3.8 ns (in OCC(O)CO) and 3.3 ns (in c1ccccc1).

On to `O=C([O-])c1cc2c(ccc3ccccc32)oc1=O`, for which the fluorescence lifetime (in O) was 12.8 ns.

In the case of `CCN(CC)c1ccc(C=Cc2nc3nc4ccccc4nc3s2)cc1`, the fluorescence lifetime reads like this: (in CCCCCCC(C)O) 0.991 ns; (in CCOC(C)=O) 1.36 ns; (in CO) 0.05 ns; (in CS(C)=O) 0.42 ns; (in Cc1ccccc1) 0.27 ns; (in ClC(Cl)Cl) 1.31 ns. This compound also had a fluorescence lifetime (in ClCCl) of 1.62 ns.

The compound `c1cc2c([nH]c3c4[nH]c5sccc5c4c4nsnc4c23)s1` displayed a fluorescence lifetime (in C1CCOC1) of 16.2 ns; a fluorescence lifetime (in CCOC(C)=O) of 16.5 ns; a fluorescence lifetime (in CN(C)C=O) of 16 ns; a fluorescence lifetime (in Cc1ccccc1) of 13.8 ns; a fluorescence lifetime (in ClCCl) of 13.2 ns.

For the setting “in CC#N”, `Fc1nc(F)c(F)c(/C=C2/C(c3c(F)c(F)nc(F)c3F)=Cc3ccccc32)c1F` gave a fluorescence lifetime of 0.3 ns.

With `N#CC(C#N)=Cc1ccc(-c2ccc(N(c3ccccc3)c3ccccc3)cc2)o1`, for the setting “in ClC(Cl)Cl”, the fluorescence lifetime stood at 2.73 ns.

For `F[B-]1(F)OC(C#Cc2ccccc2)=CC(c2ccccc2)=[O+]1`, for the setting “in ClCCl”, the fluorescence lifetime was found to be 0.94 ns.

On to `N#Cc1cnc(-c2c3ccccc3cc3ccccc23)nc1`, for which the fluorescence lifetime (in CCO) came out at 1.3 ns and the fluorescence lifetime (in ClCCl) stood at 1.6 ns.

Turning to `CCOC(=O)CN1C(=O)C2=C(c3ccc(N4CCCCC4)cc3)N(CC(=O)OCC)C(=O)C2=C1c1ccc(C#N)cc1`, the fluorescence lifetime is 3.57 ns (in CC#N), 3.72 ns (in CS(C)=O) and 4.41 ns (in Cc1ccccc1).

In the case of `CC(C)(C)c1ccc2c(c1)c1cc(C(C)(C)C)ccc1n2-c1ccc(C(=CC#N)c2ccc(-n3c4ccc(C(C)(C)C)cc4c4cc(C(C)(C)C)ccc43)cc2)cc1`, for the setting “in Cc1ccccc1”, the fluorescence lifetime was found to be 3.86 ns.

Consider `COc1ccc(N(c2ccc(OC)cc2)c2ccc(-c3ccc(-c4ccc(-c5cccs5)c5nsnc45)s3)cc2)cc1`, for which the fluorescence lifetime (in ClC(Cl)Cl) came out at 6.55 ns.

For the compound `O=C(O)COc1ccc2[nH]c3c(c2c1)CCCC3=O`, the fluorescence lifetime reads like this: (in C1CCOC1) 0.319 ns; (in C1COCCO1) 0.537 ns; (in CC#N) 0.969 ns; (in CCCCCCCCCCCCO) 1.16 ns; (in CCCCCCCCCCO) 1.14 ns; (in CCCCCCCCO) 1.19 ns. The fluorescence lifetime was 1.21 ns (in CCCCCCO); 1.11 ns (in CCCCO); 1.52 ns (in CCO); 0.464 ns (in CCOC(C)=O); 1.91 ns (in CN(C)C=O); 1.72 ns (in CO). Besides, the fluorescence lifetime by setting is: (in CS(C)=O) 2.34 ns; (in Cc1ccccc1) 0.585 ns; (in O) 1.77 ns; (in c1ccccc1) 0.632 ns.

In the case of `N#Cc1c[nH]c2ccccc12`, the fluorescence lifetime (in C1CCOC1) turned out to be 3.1 ns, the fluorescence lifetime (in C1COCCO1) was determined as 3 ns, the fluorescence lifetime (in CC#N) was determined as 1.8 ns and the fluorescence lifetime (in CS(C)=O) is 0.2 ns.

For the compound `COc1cc(-c2cc(-c3ccc(C)cc3)nc3c(C#N)c(N4CCCC4)nc(N)c23)cc(OC)c1OC`, the fluorescence lifetime (in CC#N) amounted to 10.7 ns; the fluorescence lifetime (in CC(C)=O) was 10.4 ns; the fluorescence lifetime (in CC(C)O) was 10.3 ns; the fluorescence lifetime (in CO) was 8.46 ns; the fluorescence lifetime (in ClC(Cl)Cl) was determined as 12.8 ns; the fluorescence lifetime (in ClCCl) stood at 12.6 ns. In addition, the fluorescence lifetime (in c1ccccc1) stood at 12.5 ns.

Consider `CN(C)c1ccc(C#Cc2ccc(C#Cc3ccc(C#Cc4ccccc4C#N)cc3C#N)cc2C#N)cc1`, for which the fluorescence lifetime was 1.7 ns (in C1CCOC1); 1.66 ns (in CC#N); 1.86 ns (in CN(C)C=O); 1.78 ns (in ClC(Cl)Cl); 1.74 ns (in c1ccccc1).

`COc1ccc(C2=C(c3ccc(-c4ccccc4)cc3)C(c3ccccc3)=[N+]3C2=Nc2c(-c4ccc(OC)cc4)c(-c4ccc(-c5ccccc5)cc4)c(-c4ccccc4)n2[B-]3(F)F)cc1` showed a fluorescence lifetime (in Cc1ccccc1) of 0.14 ns.

Compound `C[Si](C)(C)c1cc2c(cc3ccc4cccc5ccc2c3c45)[nH]1` registered a fluorescence lifetime (in CCOC(C)=O) of 2.41 ns.

Consider `c1ccc(-c2nc(-c3ccccc3)nc(-c3ccc(-n4c5ccc(-n6c7ccccc7c7ccccc76)cc5c5cc(-n6c7ccccc7c7ccccc76)ccc54)cc3)n2)cc1`, for which the fluorescence lifetime (in Cc1ccccc1) is 6 ns.

The compound `COc1cc2c(cc1-c1ccc(C(F)(F)F)cc1)Cc1c3c(c4c(c1-2)-c1cc(OC)c(-c2ccc(C(F)(F)F)cc2)cc1C4)C(=O)N(CCC(C)C)C3=O` showed a fluorescence lifetime (in C1CCOC1) of 2.43 ns.

On to `COc1cccc2cc(C#N)c(=N)oc12`, for which the fluorescence lifetime (in ClCCl) was 0.4 ns.

As to `O=C([O-])c1ccccc1C1=c2cc3c4c(c2Oc2c1cc1c5c2CCCN5CCC1)CCC[N+]=4CCC3`, the fluorescence lifetime (in CC#N) came out at 5.25 ns; the fluorescence lifetime (in CC(C)O) is 4.36 ns; the fluorescence lifetime (in CCCCCCCCO) was determined as 4.17 ns; the fluorescence lifetime (in CCCCCCO) came to 4.27 ns; the fluorescence lifetime (in CCCCO) amounted to 4.3 ns; the fluorescence lifetime (in CCCO) was 4.3 ns. The fluorescence lifetime is 4.74 ns (in CCO); 4.78 ns (in CN(C)C=O); 4.59 ns (in CO); 4.91 ns (in O); 4.8 ns (in [2H]O[2H]).

The compound `Nc1ccc2ccc3cccc4ccc1c2c34` showed a fluorescence lifetime (in C1CCCCC1) of 5.6 ns.

Under “in ClCCl”, `COc1cc(OC)cc(C2=[O+][B-](F)(F)OC(c3ccc4cc(OC)ccc4c3)=C2)c1` registered a fluorescence lifetime of 4.32 ns.

As for `CCN(CC)c1ccc2c(c1)oc(=O)c1c(-c3ccccc3C(=O)O)c3ccc(=[N+](CC)CC)cc-3oc12`, the fluorescence lifetime was 2.29 ns (in CCO), 4.16 ns (in ClC(Cl)Cl) and 0.31 ns (in O).

Turning to `N#Cc1cc(C#Cc2c(F)c(F)nc(F)c2F)c(C#Cc2c(F)c(F)nc(F)c2F)cc1C#N`, for the setting “in CC#N”, the fluorescence lifetime was determined as 3.92 ns.

`COc1ccc(-c2cc3c(s2)c(C(=O)c2ccccc2)cc(=O)n3Cc2ccccc2)cc1` gave a fluorescence lifetime (in ClCCl) of 5.3 ns.

In the case of `COC(=O)C(Cc1ccc2oc(-c3ccc(-n4c5ccccc5c5ccccc54)cc3)nc2c1)NC(=O)OC(C)(C)C` (stereo not drawn), the fluorescence lifetime is, setting by setting: (in C1CCCCC1) 1.37 ns; (in C1CCOC1) 3.32 ns; (in C1COCCO1) 2.49 ns; (in CC1CCCO1) 2.78 ns; (in CC#N) 5.02 ns; (in CC(C)(C)O) 4.03 ns. The compound further gave a fluorescence lifetime (in CC(C)=O) of 4.28 ns; a fluorescence lifetime (in CC(C)CC(C)(C)C) of 1.3 ns; a fluorescence lifetime (in CC(C)O) of 4.49 ns; a fluorescence lifetime (in CC(O)CO) of 5.74 ns; a fluorescence lifetime (in CCCCCCCO) of 4 ns; a fluorescence lifetime (in CCCCCCO) of 4.11 ns. In addition, the fluorescence lifetime is, setting by setting: (in CCCCCO) 3.36 ns; (in CCCCO) 4.52 ns; (in CCO) 5.3 ns; (in CCOC(C)=O) 3.08 ns; (in CCOCC) 2.8 ns; (in CN(C)C=O) 4.97 ns. In addition, the fluorescence lifetime by setting is: (in CO) 5.34 ns; (in CS(C)=O) 5.45 ns; (in Cc1ccccc1) 1.84 ns; (in OCCO) 6.17 ns.

Take `N#Cc1ccc(C=C(c2ccccc2)c2ccccc2)cc1`: the fluorescence lifetime (in C1CCOC1) worked out at 31 ns.

As to `C1=CC2CC1C1C2[C@@]2(c3ccccc3)N=NC1(c1ccccc1)[C@@H]1C[C@H]12` (stereo partly drawn), the fluorescence lifetime (in CC#N) was found to be 216 ns.

For the compound `CCCCn1c(-c2ccc(-c3nnc(-c4ccc5ccccc5c4)o3)cc2)nc2c3ccccc3c3ccccc3c21`, the fluorescence lifetime (in ClCCl) was found to be 1.78 ns.

In turn, `Cc1cc(C)c(B(c2c(C)cc(C)cc2C)c2cc3cc(N(C)C)c4ccccc4c3c3c2ccc2ccccc23)c(C)c1` displayed a fluorescence lifetime (in C1CCCCC1) of 7 ns.

`Cc1cc(C)c(C)c(-c2ccc3cc(C)c(=O)oc3c2)c1C`: the fluorescence lifetime worked out at 0.84 ns (in C1CCCCC1), 1.07 ns (in CC#N) and 1.43 ns (in CO).

As to `OCCSc1cccc2[n+]1[B-](F)(F)n1c(c3cccc4cccc1c43)=N2`, the fluorescence lifetime (in ClCCl) is 7.3 ns.

As for `CCN(CC)c1ccc2cc3ccc(=[N+](CC)CC)cc-3oc2c1`, the fluorescence lifetime (in CC#N) was found to be 4.18 ns, the fluorescence lifetime (in CCO) is 3.89 ns, the fluorescence lifetime (in CN(C)C=O) is 3.87 ns and the fluorescence lifetime (in O) turned out to be 4.07 ns.

Consider `N#Cc1cnc(-c2c3ccccc3c(-c3ccccc3)c3ccccc23)nc1`, for which the fluorescence lifetime was 0.25 ns (in CCO) and 0.4 ns (in ClCCl).

Regarding `COc1ccc2c(c1)C(=O)c1cc(OC)cc(OC)c1-2`, the fluorescence lifetime by setting is: (in C1CCCCC1) 1.3 ns; (in CC#N) 0.6 ns.

As for `CCOC(=O)C1=CN(c2ccccc2)C=C(C(=O)OCC)C1c1ccccc1`, the fluorescence lifetime (in C1CCOC1) is 8.98 ns and the fluorescence lifetime (in CO) came to 15.1 ns.

For `CCCCc1ccc2c(c1)c1ccc3cccc4c3c1c1c2c2cccc3ccc5c6cc(CCCC)ccc6c4c1c5c32`, the fluorescence lifetime (in ClCCl) was 1.74 ns.

Regarding `Cc1cc(C)n2c1C=C1c3ccccc3C(c3c[nH]c4ccccc34)=[N+]1[B-]2(F)F`, the fluorescence lifetime (in ClCCl) was 6.42 ns.

`COC(=O)CC1(C(=O)O)Oc2c(c(C(C)=O)c3c(c2C(C)=O)OCO3)O1` displayed a fluorescence lifetime (in CC#N) of 20 ns.

In turn, `CC(C)(C)c1ccc(-c2nc3c4ccccc4c4ccccc4c3n2-c2ccc(C(C)(C)C)cc2)cc1` had a fluorescence lifetime (in ClCCl) of 6.4 ns.

Compound `CCOC(=O)c1ccc(C2=Cc3cc4ccccc4cc3P2(=O)c2ccccc2)cc1` (stereo not drawn) came in with a fluorescence lifetime (in ClCCl) of 2.8 ns.
